Assay: Test for the stabilizing activity of Vitamin E on NADH (acid degradation in water at pH 4, 32° C.)
Assay type: physicochemical
Settings: within 20 minutes
Procedure: TEST FOR THE STABILIZING ACTIVITY OF VITAMIN E ON NADH Two beakers are prepared containing 50 g of water at a pH 4 and a constant temperature of 32° C. 10 mg of NADH are dissolved in the first beaker and agitate. The effect of the acidity deactivates the NADH, which splits up into NAD+H. Within 20 minutes, 9.5 mg of NADH are split-up, while 0.5 mg remain unchanged. In a second beaker […] of NADH and 5 mg of Vitamin E are dissolved. The effect of the acidity deactivates the NADH, which splits up into NAD+H. Within 20 minutes, 7.5 mg of NADH are split-up, while 2.5 mg of NADH remain unchanged. The parameters of pH 4 and 32° C. for a duration of 20 minutes has been chosen as the food supplement is to be assumed in the morning on an empty stomach, 30 minutes before breakfast. This leads the tablets to easily pass the physiological stomach barrier in 20 minutes, so as reach the first portion of the intestine, where it can be absorbed and enter the blood circulating system.

[1] = 20 mg NADH with 5 mg Vitamin E in 50 g water

- NADH remaining unchanged (10 mg NADH alone in 50 g water): 0.5 mg
- NADH split-up (into NAD+H) (10 mg NADH alone in 50 g water): 9.5 mg
- NADH remaining unchanged [1]: 2.5 mg
- NADH split-up (into NAD+H) [1]: 7.5 mg
Compound: NC(=O)C1=CN([C@@H]2O[C@H](COP(=O)(O)OP(=O)(O)OC[C@H]3O[C@@H](n4cnc5c(N)ncnc54)[C@H](O)[C@@H]3O)[C@@H](O)[C@H]2O)C=CC1 [NADH, nicotinamide adenine dinucleotide in a reduced form]

Source: patent US20020009482A1, “Proenergetic food supplement based on NADH, octocosanol and vitamin E” (priority 2000, published 2002)
